Experimental data published in patent US9920039B2, “1,2,4-Oxadiazol compounds active against gram-positive pathogens” (UNIVERSITÀ DEGLI STUDI DI MILANO—BICOCCA, priority 2013, dated 2018).
≈ marks a conversion by molar mass, not a printed value. Read-outs that look alike come from different tables or passages of the source.

Key:
[1] = system: Staphylococcus aureus ATCC 29213; experiment: MIC by broth microdilution (CLSI); format: cell-based; conditions: ATCC 29213
From the text: (§1) Several well characterized for their antibiotic-susceptibility phenotype Staphylococcus aureus isolates were used for the determination of the in vitro antibacterial activity of the studied compounds. In particular, S. aureus ATCC 29213 reference standard strain and S. aureus M923 (collection strain) were used as MSSA strains. Among MRSA, S. aureus MU50 (ATCC 700699) reference standard strain and two collection strains (433 and F511) were used for susceptibility assays.
(§2) The in vitro antibacterial activity of the new agents was studied by determining their minimum inhibitory concentrations (MICs) by means of the broth microdilution method according to the Clinical and Laboratory Standards Institute (CLSI) guidelines.[16] Briefly, serial 2-fold dilutions of each compound were made using the Cation adjusted Mueller-Hinton broth (CAMHB) in microtitre plates with 96 wells. Dimethyl sulfoxide (DMSO) was used as solvent for all the synthesized compounds. An equal volume of the bacterial inoculum (1×10^6 CFU/mL) was added to each well on the microtitre plate containing 0.05 mL of the serial antibiotic dilutions. The microtitre plate was then incubated at 37° C. for 18-24 h after which each well was analysed for the presence of bacterial growth. The MIC was defined as the lowest concentration of antimicrobial agent able to cause inhibition of bacterial growth as shown by the lack of turbidity of the culture medium. […] Final DMSO concentrations were also taken into account in all the biological assays.
(§3) The antimicrobial activities, summarized in Table 2, were determined by the “gold standard” method of broth microdilution, as recommended by the Clinical Laboratory Standards Institute (CLSI) (See the Experimental Section). […] In detail, the bacterial strains were tested: Staphylococcus aureus ATCC 29213, a clinical strain of methicillin-susceptible S. aureus (M923), S. aureus MU50 (methicillin-resistant—MRSA), and two methicillin-resistant clinical strains, 433 and F511.
(§4) The antimicrobial activities, summarized in Table 3, were determined by the “gold standard” method of broth microdilution, as recommended by the Clinical Laboratory Standards Institute (CLSI) (See the Experimental Section). The minimum inhibitory concentration (MIC) values were expressed in μg/mL. […] In detail, the tested bacterial strains were: Staphylococcus aureus ATCC 29213, a clinical strain of methicillin-susceptible S. aureus (M923), S. aureus MU50 (methicillin-resistant—MRSA) strain, and two methicillin-resistant clinical strains, 433 and F511.

MRSA clinical strain 433 = experiment: MIC by broth microdilution (CLSI); format: cell-based, Staphylococcus aureus; conditions: MRSA 433
From the text: as §1, §2, §3, §4

[2] = system: MRSA clinical strain F511; experiment: MIC by broth microdilution (CLSI); format: cell-based, Staphylococcus aureus
From the text: as §1, §2, §3, §4

[3] = system: S. aureus MU50 (ATCC 700699), methicillin-resistant (MRSA); experiment: MIC by broth microdilution (CLSI); format: cell-based, Staphylococcus aureus
From the text: as §1, §2, §3, §4

[4] = system: methicillin-susceptible S. aureus (M923); experiment: MIC by broth microdilution (CLSI); format: cell-based, Staphylococcus aureus; conditions: MSSA M923
From the text: as §1, §2, §3, §4

[5] = system: 6 ATCC (4MSSA, 2 MRSA)plus45 MRSA all LZD sensitive; experiment: MIC on strain panel (Table 4); format: cell-based, Staphylococcus aureus; conditions: 6 ATCC plus 45 MRSA; for MIC-range: tested range ≤0.06 - >128
From the text: as §2

[6] = system: 12 MRSE all LZD sensitive; experiment: MIC on strain panel (Table 4); format: cell-based, Staphylococcus epidermidis
From the text: as §2

[7] = Staphylococcus aureus, ATCC29213, racemic mixture, Table 2, read-out: MIC
[8] = Staphylococcus aureus, racemic mixture, Table 2, read-out: MIC
[9] = Staphylococcus aureus, ATCC29213, racemic form, Table 3, read-out: MIC
[10] = Staphylococcus aureus, racemic form, Table 3, read-out: MIC

SMILES | MIC [1, 7] | MIC (MRSA clinical strain 433; [8]) | MIC [2, 8] | MIC [3, 8] | MIC [4, 8] | melting point | other results
Cc1noc(-c2ccc(N3CC(CI)OC3=O)cc2)n1 (racemic) [Compound A1a, 3-(4′-(3″-methyl-1,2,4-oxadiazol-5″-yl)-phenyl)-5-(iodomethyl)-oxazolidin-2-one] | > 50 µg/mL | 25 µg/mL (≈ 64.9 µM) | 50 µg/mL (≈ 130 µM) | 50 µg/mL (≈ 130 µM) | > 50 µg/mL | 145 to 147 °C | 
Cc1noc(-c2ccc(N3CC(CI)OC3=O)cc2F)n1 (racemic) [Compound A1b, 3-(3′-fluoro-4′-(3″-methyl-1,2,4-oxadiazol-5″-yl)-phenyl)-5-(iodomethyl)-oxazolidin-2-one] | > 50 µg/mL | 50 µg/mL (≈ 124 µM) | > 50 µg/mL | 50 µg/mL (≈ 124 µM) | > 50 µg/mL | 148 to 149 °C | 
Cc1noc(-c2ccc(N3CC(CN=[N+]=[N-])OC3=O)cc2)n1 (racemic) [Compound A2a, 3-(4′-(3″-methyl-1,2,4-oxadiazol-5-yl)-phenyl)-5-(azidometil)-oxazolidin-2-one] | > 50 µg/mL | > 50 µg/mL | > 50 µg/mL | > 50 µg/mL | > 50 µg/mL | 133.9 to 135 °C | 
Cc1noc(-c2ccc(N3CC(CN=[N+]=[N-])OC3=O)cc2F)n1 (racemic) [Compound A2b, 3-(3′-fluoro-4′-(3″-methyl-1,2,4-oxadiazol-5-yl)-phenyl)-5-(azidometil)-oxazolidin-2-one] | > 50 µg/mL | > 50 µg/mL | > 50 µg/mL | > 50 µg/mL | > 50 µg/mL | 126.2 to 127.7 °C | 
CC(=O)NCC1CN(c2ccc(-c3nc(C)no3)c(F)c2)C(=O)O1 (racemic) [Compound A3b, 3-(3′-fluoro-4′-(3″-methyl-1,2,4-oxadiazol-5-yl)-phenyl)-5-(N-acetylaminomethyl)-oxazolidin-2-one] | 12.5 µg/mL (≈ 37.4 µM) | 1.6 µg/mL (≈ 4.79 µM) | 12.5 µg/mL (≈ 37.4 µM) | 6.25 µg/mL (≈ 18.7 µM) | 6.25 µg/mL (≈ 18.7 µM) | 184 to 186 °C | 
CC(=S)NCC1CN(c2ccc(-c3nc(C)no3)cc2)C(=O)O1 (racemic) [Compound A4a, 3-(4′-(3″-methyl-1,2,4-oxadiazol-5-yl)-phenyl)-5-(N-thioacetylaminomethyl)-oxazolidin-2-one] | 3.13 µg/mL (≈ 9.42 µM) | 1.6 µg/mL (≈ 4.81 µM) | 1.6 µg/mL (≈ 4.81 µM) | ≤ 0.4 µg/mL | 1.6 µg/mL (≈ 4.81 µM) |  | 
Cc1noc(-c2ccc(N3CC(Cn4cccn4)OC3=O)cc2)n1 (racemic) [Compound A5a] | > 50 µg/mL | > 50 µg/mL | > 50 µg/mL | > 50 µg/mL | > 50 µg/mL |  | 
Cc1noc(-c2ccc(N3CC(Cn4cccn4)OC3=O)cc2F)n1 (racemic) [Compound A5b] | > 50 µg/mL | > 50 µg/mL | > 50 µg/mL | > 50 µg/mL | > 50 µg/mL |  | 
Cc1noc(-c2ccc(N3CC(Cn4ccnc4)OC3=O)cc2)n1 (racemic) [Compound A6a] | > 50 µg/mL | > 50 µg/mL | > 50 µg/mL | > 50 µg/mL | > 50 µg/mL |  | 
Cc1noc(-c2ccc(N3CC(Cn4ccnc4)OC3=O)cc2F)n1 (racemic) [Compound A6b] | > 50 µg/mL | > 50 µg/mL | > 50 µg/mL | > 50 µg/mL | > 50 µg/mL |  | 
Cc1noc(-c2ccc(N3CC(Cn4cncn4)OC3=O)cc2)n1 (racemic) [Compound A7a] | > 50 µg/mL | > 50 µg/mL | > 50 µg/mL | > 50 µg/mL | > 50 µg/mL |  | 
Cc1noc(-c2ccc(N3CC(Cn4cncn4)OC3=O)cc2F)n1 (racemic) [Compound A7b] | > 50 µg/mL | > 50 µg/mL | > 50 µg/mL | > 50 µg/mL | > 50 µg/mL |  | 
Cc1noc(-c2ccc(N3CC(Cn4ccnn4)OC3=O)cc2)n1 (racemic) [Compound B1a] |  |  |  |  |  | 208 to 210 °C | MIC [1, 9]: 25 µg/mL (≈ 76.6 µM); MIC (MRSA clinical strain 433; [10]): 12.5 µg/mL (≈ 38.3 µM); MIC [2, 10]: 12.5 µg/mL (≈ 38.3 µM); MIC [3, 10]: 3.12 µg/mL (≈ 9.58 µM); MIC [4, 10]: 25 µg/mL (≈ 76.6 µM)
Cc1noc(-c2ccc(N3CC(Cn4ccnn4)OC3=O)cc2F)n1 (racemic) [Compound B1b] |  |  |  |  |  | 176.2 to 177.8 °C | MIC [1, 9]: 25 µg/mL (≈ 72.6 µM); MIC (MRSA clinical strain 433; [10]): 6.25 µg/mL (≈ 18.2 µM); MIC [2, 10]: 12.5 µg/mL (≈ 36.3 µM); MIC [3, 10]: 1.6 µg/mL (≈ 4.65 µM); MIC [4, 10]: 25 µg/mL (≈ 72.6 µM)
Cc1noc(-c2ccc(N3CC(CN=C=S)OC3=O)cc2)n1 (racemic) [Compound B2a] |  |  |  |  |  |  | MIC [1, 9]: > 50 µg/mL; MIC (MRSA clinical strain 433; [10]): > 50 µg/mL; MIC [2, 10]: 50 µg/mL (≈ 158 µM); MIC [3, 10]: > 50 µg/mL; MIC [4, 10]: > 50 µg/mL
Cc1noc(-c2ccc(N3CC(CN=C=S)OC3=O)cc2F)n1 (racemic) [Compound B2b] |  |  |  |  |  |  | MIC [1, 9]: > 50 µg/mL; MIC (MRSA clinical strain 433; [10]): > 50 µg/mL; MIC [2, 10]: > 50 µg/mL; MIC [3, 10]: > 50 µg/mL; MIC [4, 10]: > 50 µg/mL
Cc1noc(-c2ccc(N3CC(CNC(N)=S)OC3=O)cc2)n1 (racemic) [Compound B3a] |  |  |  |  |  |  | MIC ([1]; racemic form, Table 3): >50 µg/mL; MIC (MRSA clinical strain 433; racemic form, Table 3): >50 µg/mL; MIC ([2]; racemic form, Table 3): >50 µg/mL; MIC ([3]; racemic form, Table 3): >50 µg/mL; MIC ([4]; racemic form, Table 3): >50 µg/mL
Cc1noc(-c2ccc(N3CC(CNC(N)=S)OC3=O)cc2F)n1 (racemic) [Compound B3b] |  |  |  |  |  |  | MIC ([1]; racemic form, Table 3): >50 µg/mL; MIC (MRSA clinical strain 433; racemic form, Table 3): >50 µg/mL; MIC ([2]; racemic form, Table 3): >50 µg/mL; MIC ([3]; racemic form, Table 3): >50 µg/mL; MIC ([4]; racemic form, Table 3): >50 µg/mL
CNC(=S)NCC1CN(c2ccc(-c3nc(C)no3)cc2)C(=O)O1 (racemic) [Compound B4a, 1-((3-(4-(3-methyl-1,2,4-oxadiazol-5-yl)phenyl)-oxazolidin-2-one-5-yl)methyl)-3-methylthiourea] |  |  |  |  |  | 189.4 to 191.8 °C | MIC [1, 9]: 6.25 µg/mL (≈ 18 µM); MIC (MRSA clinical strain 433; [10]): 3.12 µg/mL (≈ 9 µM); MIC [2, 10]: 6.25 µg/mL (≈ 18 µM); MIC [3, 10]: 1.6 µg/mL (≈ 4.61 µM); MIC [4, 10]: 6.25 µg/mL (≈ 18 µM); MIC-range [5]: 1 to 16 µg/mL; MIC50 ([5]; Staphylococcus aureus, read-out: MIC50): 8 µg/mL; MIC90 ([5]; Staphylococcus aureus, read-out: MIC90): 16 µg/mL; MIC50 ([6]; Staphylococcus epidermidis, read-out: MIC50): 64 µg/mL (≈ 184 µM); MIC90 ([6]; Staphylococcus epidermidis, read-out: MIC90): > 128 µg/mL
CC(=O)NCC1CN(c2ccc(-c3nc(C)no3)cc2)C(=O)O1 (centres unmarked) [Compound A3a, 3-(4′-(3″-methyl-1,2,4-oxadiazol-5-yl)-phenyl)-5-(N-acetylaminomethyl)-oxazolidin-2-one] | 12.5 µg/mL (≈ 39.5 µM) | 1.6 µg/mL (≈ 5.06 µM) | 12.5 µg/mL (≈ 39.5 µM) | 6.25 µg/mL (≈ 19.8 µM) | 6.25 µg/mL (≈ 19.8 µM) | 214 to 216 °C | 
CNC(=S)NC[C@@H]1CN(c2ccc(-c3nc(C)no3)cc2)C(=O)O1 [Compound B4aR] |  |  |  |  |  |  | MIC50 [5]: >128 µg/mL; MIC90 [5]: >128 µg/mL; MIC50 [6]: >128 µg/mL; MIC90 [6]: >128 µg/mL; MIC range [6]: >128 µg/mL
CNC(=S)NC[C@H]1CN(c2ccc(-c3nc(C)no3)cc2)C(=O)O1 [Compound B4aS] |  |  |  |  |  |  | MIC50 [5]: 2 µg/mL; MIC90 [5]: 4 µg/mL; MIC-range [5]: 0.5 to 8 µg/mL; MIC50 [6]: 16 µg/mL (≈ 46.1 µM); MIC90 [6]: 32 µg/mL (≈ 92.1 µM); MIC range [6]: 8 to 32 µg/mL
CNC(=S)NC[C@@H]1CN(c2ccc(-c3nc(C)no3)c(F)c2)C(=O)O1 [Compound B4bR] |  |  |  |  |  |  | MIC50 [5]: >128 µg/mL; MIC90 [5]: >128 µg/mL; MIC50 [6]: >128 µg/mL; MIC90 [6]: >128 µg/mL
CNC(=S)NC[C@H]1CN(c2ccc(-c3nc(C)no3)c(F)c2)C(=O)O1 [Compound B4bS] |  |  |  |  |  |  | MIC50 [5]: 2 µg/mL; MIC90 [5]: 4 µg/mL; MIC-range [5]: 0.5 to 8 µg/mL; MIC50 [6]: 8 µg/mL (≈ 21.9 µM); MIC90 [6]: 8 µg/mL (≈ 21.9 µM)
